This note sets out measurements from patent US12655458B2, “Methods for cyclization of (poly)peptides comprising nγ-hydroxy- or Nγ-amino-L-asparagine” (priority 2021, dated 2026).

One assay deals with butelase 1. Put plainly: Butelase 1-mediated inter-peptide ligation with acyl acceptor GIRGI. Conditions: 400 uM peptide, 3.2 mM GIRGI, 0.01 eq butelase 1, pH 6.5, room temperature. Format: biochemical, Clitoria ternatea. As to the method:
The reaction was conducted using 400 uM of Ac-KYSN(NH2)GL and 3.2 mM of GIRGI (8 eq) in the presence of 0.01 eq butelase 1 in 20 mM PBS buffer (pH 6.5) at room temperature. The ligation product was obtained in >80% yield in 1 h (FIG. 28, lower panel). The fact that Asn(NH2) can be recognized by butelase 1 as a P1 residue for inter-peptide ligation indicates it can also be used to mediate peptide cyclization (FIG. 27).

For another assay, the target named is T1, MMP2 (Homo sapiens, UniProt P08253).
T1 construct: purchased Sigma-Aldrich
T1 sequence (P08253 110-660): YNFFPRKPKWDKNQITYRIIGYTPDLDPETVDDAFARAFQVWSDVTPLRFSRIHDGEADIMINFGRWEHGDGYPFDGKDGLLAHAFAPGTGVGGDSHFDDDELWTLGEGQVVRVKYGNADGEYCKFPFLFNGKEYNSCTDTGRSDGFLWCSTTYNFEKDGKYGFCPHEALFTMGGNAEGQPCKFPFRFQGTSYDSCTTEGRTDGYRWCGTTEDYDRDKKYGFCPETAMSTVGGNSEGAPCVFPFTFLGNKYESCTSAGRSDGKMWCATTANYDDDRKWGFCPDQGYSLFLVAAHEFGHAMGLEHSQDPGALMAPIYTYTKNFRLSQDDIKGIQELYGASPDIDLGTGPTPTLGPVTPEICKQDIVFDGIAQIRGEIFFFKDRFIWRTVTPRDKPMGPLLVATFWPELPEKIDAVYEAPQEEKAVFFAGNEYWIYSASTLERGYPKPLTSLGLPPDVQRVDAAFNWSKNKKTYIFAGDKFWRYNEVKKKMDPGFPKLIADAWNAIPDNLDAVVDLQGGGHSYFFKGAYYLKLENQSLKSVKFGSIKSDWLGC
Put plainly: MMPs inhibition assay (FRET substrate), MMP2. Format: biochemical. As to the method: (§1) The inhibitory activity of the peptides was determined by measuring the MMPs' protease activity towards a FRET substrate. 0.8 nM MMP2 or MMP9 (Sigma-Aldrich), 10 μM substrate (FAM-Lys-Pro-Leu-Gly-Leu-Lys(Dabcyl)-Ala-Arg-NH2, λex 490 nm; λem 520 nm) and various concentrations of the peptides (0.0001 μM-10 μM or 0.001 μM-100 μM) were used. The reactions were performed in 50 mM Tris-HCl buffer (pH 7.5) containing 150 mM NaCl, 10 mM CaCl2, 0.05% Brij35, at 37° C. MMP2 was pre-incubated with the peptide inhibitors for 10 min before adding the substrate. All the numbers were input into GraphPad Prism (GraphPad Software, San Diego) for IC50 calculation.

The target of the next assay is T2, MMP9 (Homo sapiens, UniProt P14780).
T2 construct: purchased Sigma-Aldrich
Put plainly: MMPs inhibition assay (FRET substrate), MMP9. Format: biochemical. As to the method:
as §1

Starred links: 1 amine or outer side, 2 acyl side, 3 side chain; linkers in the order of their positions; H or OH if unused. Positions of bridges follow the written chain, without caps; N, C: chain ends. Non-standard residues stand in square brackets, D forms with d. Residues, ends and D or L forms follow the SMILES beside them. N(NH2) = N-gamma-amino-L-asparagine, O=C(C[C@H](N[*:1])C(=O)[*:2])NN[*:3]

T2 sequence (P14780 94-707, species assumed): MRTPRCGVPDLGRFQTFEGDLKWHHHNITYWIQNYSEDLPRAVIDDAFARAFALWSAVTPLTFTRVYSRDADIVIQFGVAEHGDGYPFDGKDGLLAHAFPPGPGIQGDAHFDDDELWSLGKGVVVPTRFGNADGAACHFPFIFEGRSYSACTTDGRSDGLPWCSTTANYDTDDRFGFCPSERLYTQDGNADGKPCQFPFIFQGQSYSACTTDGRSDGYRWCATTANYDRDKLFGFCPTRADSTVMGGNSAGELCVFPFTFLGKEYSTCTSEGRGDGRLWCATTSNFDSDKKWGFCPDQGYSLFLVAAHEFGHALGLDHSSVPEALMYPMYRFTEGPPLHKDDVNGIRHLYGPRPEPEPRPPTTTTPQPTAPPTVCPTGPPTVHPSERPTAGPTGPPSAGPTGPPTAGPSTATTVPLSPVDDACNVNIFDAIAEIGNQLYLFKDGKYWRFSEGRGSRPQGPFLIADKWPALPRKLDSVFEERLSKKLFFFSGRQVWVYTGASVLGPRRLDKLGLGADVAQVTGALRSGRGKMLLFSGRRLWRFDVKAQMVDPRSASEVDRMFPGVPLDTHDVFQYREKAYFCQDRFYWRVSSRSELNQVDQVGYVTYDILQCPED
butelase 1, sequence (as listed by the source): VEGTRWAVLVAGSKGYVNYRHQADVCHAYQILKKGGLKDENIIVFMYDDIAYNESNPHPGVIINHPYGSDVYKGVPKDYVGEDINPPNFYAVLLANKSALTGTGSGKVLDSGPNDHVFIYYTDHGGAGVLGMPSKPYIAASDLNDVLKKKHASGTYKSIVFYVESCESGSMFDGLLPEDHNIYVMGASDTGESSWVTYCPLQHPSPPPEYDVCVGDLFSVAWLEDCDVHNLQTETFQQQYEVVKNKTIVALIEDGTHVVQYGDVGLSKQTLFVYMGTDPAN

With “Ac-KYSN(NH2)GL (Ac-KYS[N(NH2)]GL-NH2; SMILES CC(=O)N[C@@H](CCCCN)C(=O)N[C@@H](Cc1ccc(O)cc1)C(=O)N[C@@H](CO)C(=O)N[C@@H](CC(=O)NN)C(=O)NCC(=O)N[C@@H](CC(C)C)C(N)=O)”, the “acyl donor substrate in butelase 1-mediated ligation” value in the assay on butelase 1 is listed as “good acyl donor substrate”. For orientation: Ki means the dissociation constant of the complex between target and ligand, obtained from inhibition or displacement. A higher Ki goes with weaker binding. As to `CC[C@H](C)[C@@H]1NC(=O)[C@@H]2CSSC[C@H](NC(=O)[C@H](CCCNC(=N)N)NC(=O)[C@@H]3CSSC[C@H](NC1=O)C(=O)N[C@@H]([C@@H](C)O)C(=O)N[C@@H](CCCNC(=N)N)C(=O)NCC(=O)N[C@@H](Cc1ccccc1)C(=O)N3)C(=O)N[C@@H](CC(C)C)C(=O)N[C@H]1CSSC[C@H](NC(=O)[C@H](C(C)C)NC(=O)CNC(=O)[C@H](CCCNC(=N)N)NC(=O)[C@H](CCCNC(=N)N)NC1=O)C(=O)N[C@@H](CCCNC(=N)N)C(=O)N2` [Peptide 16, reference compound] (cyclo(GFCRCLCRRGVCRCICTR); disulfide 3-16, 5-14, 7-12 (inferred); ring closure inferred), the Ki was 60 ± 10.4 nM on MMP2 and above 10000 nM at MMP9.
